Assay results: ChEMBL document CHEMBL5331053, “Defining the structure-activity relationship for a novel class of allosteric MKP5 inhibitors” (Eur J Med Chem, 2022)

Target: T1, Dual specificity protein phosphatase 10 (Homo sapiens, UniProt Q9Y6W6)
T1 sequence (Q9Y6W6 whole entry): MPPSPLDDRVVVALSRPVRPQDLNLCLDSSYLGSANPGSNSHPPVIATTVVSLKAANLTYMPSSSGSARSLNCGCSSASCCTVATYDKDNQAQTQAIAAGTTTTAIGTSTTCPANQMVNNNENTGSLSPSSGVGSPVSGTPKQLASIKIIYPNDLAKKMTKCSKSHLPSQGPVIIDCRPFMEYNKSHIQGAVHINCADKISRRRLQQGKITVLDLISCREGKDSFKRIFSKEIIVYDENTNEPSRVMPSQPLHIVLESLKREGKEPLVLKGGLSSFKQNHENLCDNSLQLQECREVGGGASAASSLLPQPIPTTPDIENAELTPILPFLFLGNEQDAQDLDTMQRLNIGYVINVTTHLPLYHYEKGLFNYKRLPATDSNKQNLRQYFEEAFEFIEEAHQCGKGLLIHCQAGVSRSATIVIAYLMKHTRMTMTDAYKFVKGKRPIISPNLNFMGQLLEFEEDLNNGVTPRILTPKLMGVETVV
Test: Inhibition of MKP5 catalytic domain (unknown origin) expressed in Escherichia coli BL21 (DE3) cells assessed as p38alpha MAPK phosphopeptide dephosphorylation using phosphopeptide as substrate incubated for 15 mins followed by substrate addition by malachite green dye based analysis

Compound	IC50 [µM]
CC(C)(C)C(=O)CSc1ncc2cnc3ccccc3c2n1	59
CSc1scc2c1-c1nc(SCC(=O)C(C)(C)C)ncc1CC2	2.8
CC(C)(C)C(=O)CSc1ncc2c(n1)-c1cc(Cl)ccc1CC2	4
CC(C)(C)C(=O)CSc1ncc2c(n1)-c1ccsc1CC2	7.1
CC(=O)N1Cc2cnc(SCC(=O)C(C)(C)C)nc2-c2ccccc21	150
CC(C)(C)C(=O)CSc1nccc(-c2ccccc2)n1	27
CC(C)(C)C(=O)CSc1ncc2c(n1)-c1cccnc1CC2	76

More lines, in order of falling IC50, values ahead:

IC50 [µM]	Compound
100	CC(C)(C)C(=O)CSc1nccc(-c2cccnc2)n1
81	CCN(C)C(=O)CSc1ncc2c(n1)-c1c(csc1SC)CC2
11	CCCc1csc2c1-c1nc(SCC(=O)C(C)(C)C)ncc1CC2
7.5	Cc1ccc2c(c1)-c1nc(SCC(=O)C(C)(C)C)ncc1CC2
6.2	CC(C)(C)C(=O)CSc1ncc2c(n1)-c1ccccc1CC2
5	CCc1csc2c1-c1nc(SCC(=O)C(C)(C)C)ncc1CC2

Target: T1, Dual specificity protein phosphatase 10
Test: Inhibition of human MKP5 catalytic domain (320 to 467 residues) expressed in Escherichia coli BL21 (DE3) cells by MST assay

Compound	IC50 [µM]
CSc1scc2c1-c1nc(SCC(=O)C(C)(C)C)ncc1CC2	3.8
